The source of these data is patent US12024504B2, “1-methyl-1H-pyrazol-3-yl derivatives for use in the treatment of neovascular diseases” (EXONATE LIMITED, priority 2021, dated 2024).

Series [1] in a line: Porcine scleral permeability (modified Ussing chamber). The format is in vitro ADME. The conditions noted are these: for Papp at 24 h, 10 μg/mL: pig, pH 7.4, porcine excised eye tissue, 10 μg/mL compound on donor side. As to the method: Scleral permeability was measured using a modified Ussing chamber assembly in the initial eye drop formulation containing 1% hydroxypropyl methyl cellulose, 0.2% tyloxapol, 3.4% dextrose, 0.006% benzalkonium chloride, and 0.025% ethylenediaminetetraacetic acid with 1% DMSO in PBS (pH 7.4). Porcine excised eye tissues were mounted in the chambers such that the episcleral side faced the donor chamber and the retinal side faced the receiver chamber. The chambers were filled with equal volumes of eye drop formulation, with (donor side) or without (receiver side) 10 μg/mL compound. After 24 hours tissue was removed from the chamber and the receiver side (“vitreous”) sampled. Tissue was dissected into sclera, choroid/RPE, and retina and homogenised. A tracer (SPHINX7; WO 2015/159103) was added, and tissue extracted by acetonitrile extraction as described in Batson et al (2017). Compounds were then analysed by mass spectrometry as described in Batson et al (2017).
To determine whether compounds could get across the sclera of a larger animal, porcine sclera was clamped between two chambers and compounds were added to the sclera with eye drop formulation added to the bottom chamber and compounds added to the top chamber. After 24 hours, the fluid from the bottom chamber (vitreous) and the retinal tissue was isolated and compounds purified by methanol or acetonitrile extraction and HPLC.

For the next series, the target named is T1, SRPK1 (Homo sapiens, UniProt Q96SB4).
T1 construct: purchased MRC Dundee Kinase Centre (external assay service)
T1 sequence (Q96SB4 whole entry): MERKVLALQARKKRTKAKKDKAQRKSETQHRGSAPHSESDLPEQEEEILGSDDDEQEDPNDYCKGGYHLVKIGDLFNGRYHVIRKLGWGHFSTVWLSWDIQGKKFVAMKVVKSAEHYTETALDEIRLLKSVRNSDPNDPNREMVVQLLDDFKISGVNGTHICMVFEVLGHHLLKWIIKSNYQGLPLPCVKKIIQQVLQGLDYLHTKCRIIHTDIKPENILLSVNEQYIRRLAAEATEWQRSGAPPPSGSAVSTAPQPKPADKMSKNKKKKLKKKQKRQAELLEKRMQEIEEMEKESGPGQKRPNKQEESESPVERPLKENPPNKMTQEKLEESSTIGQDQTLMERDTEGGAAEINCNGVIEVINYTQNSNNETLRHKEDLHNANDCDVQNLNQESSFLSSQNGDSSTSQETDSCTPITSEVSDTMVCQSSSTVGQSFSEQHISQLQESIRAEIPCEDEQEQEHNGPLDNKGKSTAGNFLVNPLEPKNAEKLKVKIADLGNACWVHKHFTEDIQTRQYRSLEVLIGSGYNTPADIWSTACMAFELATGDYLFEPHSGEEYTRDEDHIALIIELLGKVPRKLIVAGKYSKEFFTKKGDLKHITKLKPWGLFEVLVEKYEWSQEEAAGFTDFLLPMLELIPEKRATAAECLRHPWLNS
In words: In vitro kinase assay (radioactive filter binding, 33P ATP). In kind it is biochemical. As to the method:
Kinase assays were carried out by the MRC Dundee Kinase Centre using a radioactive filter binding assay using ^33P ATP (Hastie, et al 2006. Nat Protoc. 2006; 1(2):968-71; Bain, et al 2007. Biochem J. 2007 Dec. 15; 408(3):297-315).

Series [2] concerns choroidal neovascularisation. The conditions noted are these: mouse models of choroidal neovascularisation, previously shown; cited from earlier work.
Series [3] can be described thus: Solubility in eye drop formulation. The format is physicochemical. Conditions: aqueous with cosolvent or surfactant or cyclodextrin; initial eye drop formulation (1% HPMC, 0.2% tyloxapol, 3.4% dextrose, 1% DMSO in PBS); read-out: Maximum limit of solubility.
For another series, the system named is VEGF165b and VEGF165. Conditions: cited from earlier work.
For series [4] the following is noted: 0.5 mg monthly, at one year; cited from earlier work.

Converted amounts (≈) assume the structure as drawn.

`Cn1ccc(CN2CCCN(c3ccc(C(F)(F)F)cc3NC(=O)c3ccc(C4CCOCC4)o3)CC2)n1` [Compound 2, N-(2-(4-((1-methyl-1H-pyrazol-3-yl)methyl)-1,4-diazepan-1-yl)-5-(trifluoromethyl)phenyl)-5-(tetrahydro-2H-pyran-4-yl)furan-2-carboxamide] showed a Papp at 24 h, 10 μg/mL in series [1] of 0.0442 ×10⁻⁶ cm/s. Moreover, the IC50 on SRPK1 was 10 nM.

`Cn1ccc(CN2CCCN(c3ccc(Cl)cc3NC(=O)c3ccc(C4CCOCC4)o3)CC2)n1` [Compound 3, N-(5-chloro-2-(4-((1-methyl-1H-pyrazol-3-yl)methyl)-1,4-diazepan-1-yl)phenyl)-5-(tetrahydro-2H-pyran-4-yl)furan-2-carboxamide] came in with a melting point of 148 to 150 °C. In series [1], the Papp at 24 h, 10 μg/mL came out at 0.0675 ×10⁻⁶ cm/s. The IC50 at SRPK1 is 35 nM.

Consider `O=C(Nc1cc(C(F)(F)F)ccc1N1CCN(Cc2cc[nH]n2)CC1)c1ccc(C2CCOCC2)o1` [Compound R, N-(2-(4-((1H-pyrazol-3-yl)methyl)piperazin-1-yl)-5-(trifluoromethyl)-phenyl)-5-(tetrahydro-2H-pyran-4-yl)furan-2-carboxamide, reference compound], for which, in series [1] (24 hours, FIG. 1), the “Permeability across porcine sclera (in words)” value is given as “considerably lower permeability”.

On to `O=C(Nc1cc(C(F)(F)F)ccc1N1CCN(Cc2ccccn2)CC1)c1ccc(-c2ccncc2)o1` [SPHINX31], for which the “Eye drop concentration of maximum effect” value in series [2] was 2 µg/mL.

Take `Cc1ccc(Nc2nccc(N(C)c3ccc4c(C)n(C)nc4c3)n2)cc1S(N)(=O)=O` [pazopanib]: the solubility in series [3] turned out to be 80 µg/mL (≈ 183 µM).

In the case of “bevicizumab: an anti-VEGF antibody from which Lucentis was derived”, in the series on VEGF165b and VEGF165, the “Binding of VEGF165b relative to VEGF165” value is “equal potency”.

B1: Lucentis: a novel humanized anti-VEGF antibody fragment (antibody, chains of the INN, looked up, V domains shown)
VH: EVQLVESGGGLVQPGGSLRLSCAASGYDFTHYGMNWVRQAPGKGLEWVGWINTYTGEPTYAADFKRRFTFSLDTSKSTAYLQMNSLRAEDTAVYYCAKYPYYYGTSHWYFDVWGQGTLVTVSS
VL: DIQLTQSPSSLSASVGDRVTITCSASQDISNYLNWYQQKPGKAPKVLIYFTSSLHSGVPSRFSGSGSGTDFTLTISSLQPEDFATYYCQQYSTVPWTFGQGTKVEIK
modifications: Fab
notes: a novel humanized anti-VEGF antibody fragment
On to B1, for which, in series [4], the “Patients who maintained visual acuity (loss of <15 letters)” value is “approximately 95%” and the “Patients with improved vision (gain of ≥15 letters)” value was not above 40%.

By Papp is commonly meant the rate of passage across a membrane or cell layer, normalised by area and donor concentration. Higher therefore signals fast passage. As a reminder, the IC50 is the concentration that gives 50% inhibition. In general, melting point refers to the temperature, or range, at which the solid turns liquid. What is called solubility is how much of the substance goes into solution per volume.
